Measured values as given in US8426174B2, “Method for the production of 2-butanol” (Butamax(TM) Advanced Biofuels LLC, priority 2007, dated 2013).

Key:
[1] = system: Lactobacillus plantarum PN0512; assay: Growth of L. plantarum PN0512 in the presence of butanols at different temperatures; format: cell-based; set-up: key to Growth at 37° C. / Growth at 30° C. / Growth at 25° C.: +: growth observed as an increase in OD600.; −: no growth observed, i.e. no change in OD600
Method: Tolerance levels of bacterial strain Lactobacillus plantarum PN0512 (ATCC # PTA-7727) were determined at 25° C., 30° C. and 37° C. as follows. The strain was cultured in S30L medium (i.e., 10 mM ammonium sulfate, 5 mM potassium phosphate buffer, pH 7.0, 50 mM MOPS, pH 7.0, 2 mM MgCl2, 0.7 mM CaCl2, 50 μM MnCl2, 1 μM FeCl3, 1 μM ZnCl2, 1.72 μM CuCl2, 2.53 μM CoCl2, 2.42 μM Na2MoO4, 2 μM thiamine hydrochloride, 10 mM glucose, and 0.2% yeast extract). An overnight culture in the absence of any test compound was started in 15 mL of the S30L medium in a 150 mL flask, with incubation at 37° C. in a shaking water bath. The next morning, the overnight culture was diluted into three 500 mL flasks containing 150 mL of fresh medium to an initial OD600 of about 0.08. Each flask was incubated in a shaking water bath, one each at 25° C., 30° C. and 37° C. Each large culture was allowed to acclimate at the test temperature for at least 0.5 h. […] Growth was followed by measuring OD600 for six hours after addition of the compounds.

[2] = system: Klebsiella pneumoniae glycerol dehydratase; assay: Glycerol dehydratase butanediol dehydratase activity, crude cell free extract; format: biochemical; conditions: 10 mM meso-2,3-butanediol, 12 μM coenzyme B12, pH 8.2, 37° C.
Text: Glycerol dehydratase (E.C. 4.2.1.30) and diol dehydratase (E.C. 4.2.1.28), while structurally related, are often distinguished in the art based on various differences that include substrate specificity. […] The recombinant E. coli strain KLP23/pSYCO12, comprising Klebsiella pneumoniae genes encoding the multiple subunits of glycerol dehydratase (alpha: SEQ ID NO:145 (coding region) and 146 (protein); beta: SEQ ID NO: 147 (coding region) and 148 (protein); and gamma: SEQ ID NO: 149 (coding region) and 150 (protein)) and Klebsiella pneumoniae genes encoding the multiple subunits of glycerol dehydratase reactivase (large subunit, SEQ ID NO: 151 (coding region) and 152 (protein); and small subunit, SEQ ID NO: 153 (coding region) and 154 (protein)), is described in Emptage et al. U.S. Pat. No. 6,514,733 and in WO 2003089621, which are herein incorporated by reference. A crude, cell free extract of KLP23/pSYCO12 was prepared by methods known to one skilled in the art. […] The formation of 2-butanone was monitored by HPLC (Shodex SH-1011 column and SH-G guard column with refractive index detection; 0.01 M H2SO4 as the mobile phase at a flow rate of 0.5 mL/min and a column temperature of 50° C.; 2-butanone retention time=40.2 min). The rate of 2-butanone formation by the glycerol dehydratase preparation was determined to be 0.4 nmol/min/mg of crude protein.

CCC(C)O (stereo not drawn) [2-butanol] was tested, and the “Growth at 37° C.” value ([1]; 1.8 % w/v 2-butanol) was “+”, the “Growth at 37° C.” value ([1]; 2.1 % w/v 2-butanol) was “+” and the “Growth at 25° C.” value ([1]; 2.9 % w/v 2-butanol) was “+”. The “Growth at 30° C.” value ([1]; 2.9 % w/v 2-butanol) was “+”, the “Growth at 37° C.” value ([1]; 2.9 % w/v 2-butanol) was “+” and the “Growth at 37° C.” value ([1]; 3.1 % w/v 2-butanol) was “+”. The “Growth at 37° C.” value ([1]; 3.6 % w/v 2-butanol) was “+”, the “Growth at 25° C.” value ([1]; 3.8 % w/v 2-butanol) was “+” and the “Growth at 30° C.” value ([1]; 3.8 % w/v 2-butanol) was “+”. The “Growth at 37° C.” value ([1]; 3.8 % w/v 2-butanol) was “+”, the “Growth at 30° C.” value ([1]; 4.0 % w/v 2-butanol) was “+” and the “Growth at 25° C.” value ([1]; 4.3 % w/v 2-butanol) was “+”. The “Growth at 30° C.” value ([1]; 4.3 % w/v 2-butanol) was “+”, the “Growth at 37° C.” value ([1]; 4.3 % w/v 2-butanol) was “+” and the “Growth at 25° C.” value ([1]; 4.7 % w/v 2-butanol) was “+”. The “Growth at 30° C.” value ([1]; 4.7 % w/v 2-butanol) was “+”, the “Growth at 37° C.” value ([1]; 4.7 % w/v 2-butanol) was “−” and the “Growth at 25° C.” value ([1]; 4.9 % w/v 2-butanol) was “+”. The “Growth at 30° C.” value ([1]; 4.9 % w/v 2-butanol) was “−”, the “Growth at 25° C.” value ([1]; 5.2 % w/v 2-butanol) was “+” and the “Growth at 37° C.” value ([1]; 5.2 % w/v 2-butanol) was “−”. For the same molecule, the “Growth at 25° C.” value ([1]; 5.6 % w/v 2-butanol) was “−”, the “Growth at 37° C.” value ([1]; 5.6 % w/v 2-butanol) was “−” and the “Growth at 37° C.” value ([1]; 6.0 % w/v 2-butanol) was “−”. The “Growth at 37° C.” value ([1]; 6.4 % w/v 2-butanol) was “−”, the “Growth at 37° C.” value ([1]; 7.3 % w/v 2-butanol) was “−” and the “concentration in which growth was observed” value ([1]; 25° C.) was 5.2%. The “concentration in which growth was not observed” value ([1]; 30° C.) was 4.9%, the “concentration in which growth was observed” value ([1]; 30° C.) was 4.7% and the “concentration in which growth was not observed” value ([1]; 37° C.) was 4.5%. The “concentration in which growth was observed” value ([1]; 37° C.) was 4.3% and the “Growth at 30° C.” value ([1]; […] w/v 2-butanol) was “+”.

CC(O)C(C)O (stereo not drawn) [meso-2,3-butanediol] was tested, and the “rate of 2-butanone formation” value [2] was 0.4 nmol/min/mg of crude protein.
